The values that follow come from patent publication US20250098692A1, “GERMINATION/SPROUTING AND FRUIT RIPENING REGULATORS” (The United States of America, as Represented by the …, priority 2021, published 2025).

SMILES strings stand for the structures.

Experiment [1] concerns strawberry fruit. Briefly: PAD analogs: ability to delay strawberry fruit ripening. It is filed as in vivo. The settings on record: for effect on strawberry fruit ripening: 50 μM in 0.1% TRITON-X 100. Here is the method: Chemicals with similarity to PAD were tested for their ability to delay fruit ripening.
To the inventors' knowledge, no chemical closely-related to PAD is currently commercially available. A few analogs with 88-99% similarity to PAD were found in the ChemBridge database used in Example 1.

Experiment [2] concerns Strawberry seeds (Fragaria x ananassa CV. Albion). Briefly: Chemical library screening for promotion of strawberry seed germination. It is filed as in vivo. The settings on record: about 5 μM chemical in 0.1% TRITON X-100, 96 well plates, 25 C. An excerpt:
Chemical libraries of small compounds were screened for compounds capable of promoting seed germination, delaying the fruit ripening process, and/or retarding fruit pigmentation. A chemical library containing 10,000 small compounds (˜300 Dalton) was purchased from ChemBridge Co (San Diego, California, USA). Strawberry seeds (Fragaria x ananassa CV. Albion) were purchased from Johnny's Seeds (Fairfield, Maine, USA). Five to six seeds were sterilized with 70% ethanol and added to each well of 96 well ELISA plates containing about 5 μM chemical in 0.1% TRITON X-100 surfactant (polyethylene glycol tert-octylphenyl ether). One mM abscisic acid (ABA), a hormone that inhibits seed germination, and gibberellic acid (GA3), a hormone that promotes seed germination, were used as controls. Each experiment was conducted in triplicate. Plates were kept in a growth chamber at 25 C under dark, and a 14 hour light/10 hour dark cycle was added after seed germination was observed.

For experiment [3], the system named is strawberry fruit. Briefly: Strawberry fruit ripening after dipping fruits on the plant. It is filed as in vivo, Fragaria x ananassa CV. Albion. The settings on record: for strawberry appearance (FIG. 2B): 8 DAT; for strawberry appearance (FIG. 2B) / strawberry appearance (FIG. 2C) / strawberry appearance (FIG. 2D) / strawberry appearance (FIG. 2E) / strawberry appearance (FIG. 2F) / fruit started to turn red: 10 μM PAD or 1 mM ABA; for strawberry appearance (FIG. 2C): 9 DAT; for strawberry appearance (FIG. 2D): 10 DAT; for strawberry appearance (FIG. 2E): 11 DAT; for strawberry appearance (FIG. 2F): 12 DAT; for effect on strawberry fruit ripening compared to mock-treated fruit: dipped 20 seconds eight days after pollination, 10 μM PAD or 1 mM ABA in 0.1% TRITON X-100. Here is the method:
Strawberry plants (Fragaria x ananassa CV. Albion) were grown in a greenhouse at 28° C. and 14-hour light/10-hour dark conditions. Eight days after pollination, fruits were dipped for 20 seconds in 10 µM PAD in 0.1% TRITON X-100 surfactant; 1 mM ABA in 0.1% TRITON X-100 surfactant; or buffer alone (0.1% Triton X-100). Fruits were allowed to continue growing on the plants. FIG. 1 depicts images of strawberry fruit development under standard conditions.
Of the twelve chemicals identified in Example 1 as promoting seed germination, N-[3-chloro-4-(4-propionyl-1-piperazinyl)phenyl]-2-phenylacetamide was named “PAD,” and used for further study. […] Mock-treated fruit started to turn red at 10 DAT, and reached full red at 12 DAT. ABA-treated fruit started to turn red 9 DAT, and reached full red 11 DAT. In contrast, PAD-treated fruit only started turning red 12 DAT.

Another experiment has as its system Cherry tomato fruits. Briefly: Cherry tomato ripening after injection at mature green stage. It counts as in vivo. Conditions: for cherry tomato appearance (FIG. 3B, FIG. 3D): 6 DAT, injected 10 µM PAD or 200 μM ABA (figure legend); for ripening stage of cherry tomato fruits: six days after treatment, injected 50 μM PAD or 200 μM ABA. The protocol: Cherry tomato fruits at mature green stage were purchased from Butler's Orchard (Germantown, Maryland, USA). […] FIG. 3A and FIG. 3B show images of cherry tomatoes injected with 50 µM PAD. FIG. 3C and FIG. 3D show images of cherry tomatoes injected with 200 μM ABA. FIG. 3E and FIG. 3F show images of cherry tomatoes injected with buffer alone. FIG. 3G and FIG. 3H show images of untreated tomatoes. FIG. 3A; FIG. 3C; FIG. 3E; and FIG. 3G show images taken the day of treatment. FIG. 3B; FIG. 3D; […]; and FIG. 3H show images taken 6 DAT.

In experiment [4] the test system is strawberry fruit. Briefly: Strawberry fruit ripening after injection of fruits. It is filed as in vivo, Fragaria x ananassa CV. Albion. The settings on record: for strawberry appearance (FIG. 4A): 8 DAT; for strawberry appearance (FIG. 4A) / strawberry appearance (FIG. 4B) / strawberry appearance (FIG. 4C) / strawberry appearance (FIG. 4D) / strawberry appearance (FIG. 4E) / fruit started to turn red: 10 µM PAD or 200 μM ABA; for strawberry appearance (FIG. 4B): 9 DAT; for strawberry appearance (FIG. 4C): 10 DAT; for strawberry appearance (FIG. 4D): 11 DAT; for strawberry appearance (FIG. 4E): 12 DAT. The protocol: Strawberry plants (Fragaria x ananassa CV. Albion) were grown and maintained as disclosed above. Fourteen days after pollination fruits were injected with 10 µM PAD in 0.1% TRITON X-100 surfactant; 200 μM ABA in 0.1% TRITON X-100 surfactant; or buffer alone (0.1% Triton X-100 surfactant).
FIG. 4A to FIG. 4F depict images of strawberries treated with either 10 µM PAD in 0.1% TRITON X-100 surfactant; 200 μM ABA in 0.1% TRITON X-100 surfactant; buffer alone ([…] surfactant; mock-treated); or not injected (control). […] Control fruit started to turn red 11 DAT, and reached full red at 12 DAT. Mock-treated fruit started to turn red at 10 DAT, and reached full red at 12 DAT. ABA-treated fruit started to turn red 9 DAT, and reached full red 11 DAT. In contrast, PAD-treated fruit only started turning red 12 DAT.

In experiment [5] the test system is strawberry fruit. Briefly: Strawberry fruit ripening after dipping fruits on the plant. Conditions: 10 μM PAD applied on day 9 after pollination. It is filed as in vivo, Fragaria x ananassa CV. Albion.

With `CC(C)C(=O)N1CCN(c2ccc(NC(=O)C(c3ccccc3)c3ccccc3)cc2Cl)CC1` [N-(3-chloro-4-(4-isobutyryl-1-piperazinyl)phenyl]-2,2-diphenylacetamide], the “effect on strawberry fruit ripening” value in the experiment with strawberry fruit [1] is “no obvious effect”.
`CC(C)(C)C(=O)N1CCN(c2ccc(NC(=O)Cc3ccccc3)cc2Cl)CC1` [N-(3-chloro-4-[4-(2,2-dimethylpropanoyl)-1-piperazinyl]phenyl)-2-phenylacetamide]: the “effect on strawberry fruit ripening” value with strawberry fruit [1] was “delayed strawberry fruit ripening”. Further, the “effectiveness in delaying strawberry fruit ripening relative to PAD” value in the experiment on strawberry fruit [1] (50 μM in 0.1% TRITON-X 100, same timing as PAD) is recorded as “much less effectively than PAD”.
In the case of `CC(C)C(=O)N1CCN(c2ccc(NC(=O)Cc3ccc(Cl)cc3)cc2)CC1` [2-(4-chlorophenyl)-N-[4-(4-isobutyryl-1-piperazinyl)phenyl]acetamide], the “effect on strawberry fruit ripening” value in the experiment with strawberry fruit [1] is on record as “no obvious effect”.
With `CCC(=O)N1CCN(c2ccc(NC(=O)Cc3ccccc3)cc2Cl)CC1` [PAD, N-[3-chloro-4-(4-propionyl-1-piperazinyl)phenyl]-2-phenylacetamide], the promoting seed germination entry in experiment [2] is on record as “promoted seed germination”. In the experiment on strawberry fruit [3] (dipped), the “strawberry appearance (FIG. 2B)” value is on record as “white with a greenish tint”, the “strawberry appearance (FIG. 2C)” value was “whit with a greenish tint”, the “strawberry appearance (FIG. 2D)” value was “white with a greenish tint” and the “strawberry appearance (FIG. 2E)” value was “white”. Also, the “strawberry appearance (FIG. 2F)” value in the experiment on strawberry fruit [3] (dipped) is listed as “red with some yellow”. Also, in the experiment with strawberry fruit [3] (PAD-treated vs mock-treated), the “fresh weight of strawberry fruit larger than mock-treated” value is reported as “about 10%” and the “sugar content versus mock-treated controls” value is given as “no difference in the sugar content”. Also, the “effect on strawberry fruit ripening compared to mock-treated fruit” value in the experiment on strawberry fruit [3] is “delayed fruit ripening”. Besides, the “fruit started to turn red” value in the experiment with strawberry fruit [3] (dipped, days after treatment) turned out to be 12 DAT. In addition, in the experiment on Cherry tomato fruits, the “cherry tomato appearance (FIG. 3B, FIG. 3D)” value is reported as “with a yellow and/or yellow/red tint” and the “ripening stage of cherry tomato fruits” value is given as “still at a green stage”. The “effect on cherry tomato ripening compared to mock-treated or untreated” value in the experiment with Cherry tomato fruits (injected 50 μM PAD) is on record as “delay in cherry tomato ripening”. In addition, the “delay in cherry tomato fruit ripening” value with Cherry tomato fruits (mature green stage, 50 μM PAD) is on record as “about a seven-day delay”. For the same compound, in the experiment on strawberry fruit [4] (injected), the “strawberry appearance (FIG. 4A)” value is recorded as “with pink spots”, the “strawberry appearance (FIG. 4B)” value was “orange”, the “strawberry appearance (FIG. 4C)” value is recorded as “mostly red” and the “strawberry appearance (FIG. 4D)” value was “mostly red”. The “strawberry appearance (FIG. 4E)” value in the experiment with strawberry fruit [4] (injected) was “red”. Further, in the experiment with strawberry fruit [4] (injected fourteen days after pollination, 10 µM PAD), the “effect on strawberry fruit ripening compared to not-treated, mock-treated and ABA treated fruit” value is on record as “delayed fruit ripening”. For the same compound, the “fruit started to turn red” value with strawberry fruit [4] (injected, days after treatment) was determined as 12 DAT. Moreover, the “delay of strawberry fruit ripening compared with mock-treated” value in the experiment with strawberry fruit [5] is “about 2 days”.
As for `CC1=CC(=O)CC(C)(C)[C@@]1(O)/C=C/C(C)=C\C(=O)O` [ABA, abscisic acid, reference compound], in the experiment with strawberry fruit [3] (dipped), the “strawberry appearance (FIG. 2B)” value is on record as “white”, the “strawberry appearance (FIG. 2C)” value is “with pink spots”, the “strawberry appearance (FIG. 2D)” value is on record as “mostly red” and the “strawberry appearance (FIG. 2E)” value is listed as “red”. Moreover, in the experiment on strawberry fruit [3] (dipped), the “strawberry appearance (FIG. 2F)” value is “red”. In addition, the “effect on strawberry fruit ripening compared to mock-treated fruit” value in the experiment with strawberry fruit [3] is given as “stimulated strawberry fruit ripening”. For the same compound, the “fruit started to turn red” value with strawberry fruit [3] (dipped, days after treatment) is given as 9 DAT. Further, the “fruit reached full red” value in the experiment with strawberry fruit [3] (dipped, 1 mM ABA, days after treatment) was found to be 11 DAT. Also, in the experiment on Cherry tomato fruits, the “cherry tomato appearance (FIG. 3B, FIG. 3D)” value is on record as “red” and the “ripening stage of cherry tomato fruits” value is “fully ripen (red stage)”. For the same compound, in the experiment with strawberry fruit [4] (injected), the “strawberry appearance (FIG. 4A)” value was “with pink spots”, the “strawberry appearance (FIG. 4B)” value is given as “mostly red”, the “strawberry appearance (FIG. 4C)” value was “mostly red” and the “strawberry appearance (FIG. 4D)” value is “mostly red”. Besides, the “strawberry appearance (FIG. 4E)” value in the experiment on strawberry fruit [4] (injected) is “red”. Besides, in the experiment with strawberry fruit [4] (injected, days after treatment), the “fruit started to turn red” value was 9 DAT. Besides, the “fruit reached full red” value in the experiment on strawberry fruit [4] (injected, 200 μM ABA, days after treatment) stood at 11 DAT.
